The source of these data is ChEMBL document CHEMBL4041469, “The replacement of the 2-methoxy substituent of N-((6,6-diphenyl-1,4-dioxan-2-yl)methyl)-2-(2-methoxyphenoxy)ethan-1-amine improves the selectivity for 5-HT1A receptor over α1-adrenoceptor and D2-like receptor subtypes” (Eur J Med Chem, 2017).

Assay [1] in a line: Selectivity index, ratio of Ki for recombinant human D4 receptor expressed in HEK293 cell membranes to Ki for recombinant human 5HT1A receptor expressed in human HeLa cell membranes.
The target of a further assay is T1, D(4) dopamine receptor (Homo sapiens, UniProt P21917).
T1 sequence (P21917 whole entry): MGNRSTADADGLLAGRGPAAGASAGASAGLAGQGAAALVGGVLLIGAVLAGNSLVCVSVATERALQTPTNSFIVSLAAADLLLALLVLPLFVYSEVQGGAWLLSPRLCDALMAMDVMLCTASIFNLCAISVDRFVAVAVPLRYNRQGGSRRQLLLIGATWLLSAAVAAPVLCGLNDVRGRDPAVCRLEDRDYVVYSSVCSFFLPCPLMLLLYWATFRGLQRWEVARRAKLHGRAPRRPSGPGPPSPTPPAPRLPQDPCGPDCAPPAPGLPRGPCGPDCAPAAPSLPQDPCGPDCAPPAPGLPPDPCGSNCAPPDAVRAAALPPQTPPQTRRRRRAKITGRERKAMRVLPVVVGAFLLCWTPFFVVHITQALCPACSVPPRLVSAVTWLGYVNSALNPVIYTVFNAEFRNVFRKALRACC
As to the kind of experiment: Displacement of [3H]N-methylspiperone from recombinant human D4 receptor expressed in HEK293 cell membranes after 1 hr by liquid scintillation counting method.

Assay [2] in a line: Selectivity index, ratio of Ki for recombinant human alpha-1d adrenergic receptor expressed in CHO cell membranes to Ki for recombinant human 5HT1A receptor expressed in human HeLa cell membranes.
Another assay concerns Mus musculus. In words: Anxiolytic activity in CD-1 mouse assessed as increase in time spent in light area at 30 mg/kg, ip administered 30 mins prior to test in presence of 5HT1A receptor antagonist WAY100135 by light/dark exploration test. The assay is classed as functional, organism-based.
Assay [3] concerns the target T2, 5-hydroxytryptamine receptor 1A (Homo sapiens) (UniProt P08908).
T2 sequence (whole entry): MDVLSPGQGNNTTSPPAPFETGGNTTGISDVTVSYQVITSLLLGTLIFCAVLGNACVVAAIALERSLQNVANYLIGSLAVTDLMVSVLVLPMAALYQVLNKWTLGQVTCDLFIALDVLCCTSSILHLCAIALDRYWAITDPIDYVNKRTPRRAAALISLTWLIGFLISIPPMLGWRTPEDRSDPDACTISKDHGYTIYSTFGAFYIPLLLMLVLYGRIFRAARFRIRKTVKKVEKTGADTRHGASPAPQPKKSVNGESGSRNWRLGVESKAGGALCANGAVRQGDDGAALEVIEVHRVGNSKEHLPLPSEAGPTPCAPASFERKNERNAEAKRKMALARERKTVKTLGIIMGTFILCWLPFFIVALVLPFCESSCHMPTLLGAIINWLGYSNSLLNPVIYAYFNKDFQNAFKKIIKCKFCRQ
In words: Agonist activity at recombinant human 5HT1A receptor expressed in human HeLa cell membranes assessed as stimulation of [35S]GTPgammaS binding preincubated for 20 mins followed by [35S]GTPgammaS addition measured after 30 mins by liquid scintillation counting method. The assay is classed as functional.

The source made the active and inactive calls. No cut-off for these calls is given here.

Regarding `COCOc1ccccc1OCCNCC1COCC(c2ccccc2)(c2ccccc2)O1` (racemic), the entries for the “Ratio Ki” value in assay [1] and in assay [2] were 81 and 126, respectively. Besides, on D(4) dopamine receptor, the Ki is 51.3 nM. In addition, in the assay on Mus musculus, the result was inactive. Also, the pD2 in assay [3] worked out at 9.41.
